21 compounds from patent US5340818A, “Methods and compositions for inhibiting tumor cell growth” (priority 1993, dated 1994) can be followed below.

Type in all cases: cell-based, human
The test system of assay [1] is RNA synthesis in HL-60 cells. Put plainly: Inhibition of [5-3H]Cyd incorporation into RNA of HL-60 cells. As to conditions: Homo sapiens, HL-60, 0.5 h. The method, then: (§1) For the precursor incorporation studies, each compound (in 0.3% dimethylsulfoxide) was preincubated with HL-60 cells (a human promyelocytic leukemic cell line) 2.2×10^6 /ml, for 15 min prior to the addition of the labeled precursor (obtained from ICN Radiochemicals, Irvine, Calif.) and then incubated for 30 min. The precursors used for incorporation into DNA, RNA and protein were [^3 H-methyl]dThd (1 μCi, 0.15 nmole/ml), [5-^3 H]Cyd (5 μCi, 0.23 nmol/ml), and [2,3,4,5-^3 H]L-Leu (0.5 μCi, 0.004 nmol/ml), respectively. Incorporation of radioactivity in the absence of a plant compound and in the presence of dimethylsulfoxide was used as a control. The control values for incorporation into DNA, RNA and protein were 8,500, 5,600 and 1,700 cpm/10^6 cells, respectively. The incubation conditions and the procedures for isolating DNA, RNA and protein fractions have been previously described (Chou, T. -C., et al., Cancer Res., 43:3074-3079 (1983)) .
(§2) HL-60 cells were incubated with [5-^3 H]Cyd or [2,3,4,5-^3 H]L-Leu in the presence and absence of alkaloids (0.03 mg/ml) in order to find the effects of the alkaloid on the incorporation of labeled precursors into RNA or protein. […] Over 90% of RNA and protein biosynthesis were inhibited by compounds 11, 16, 17, 22, 28, 29and 30 (Table 1). […] In most cases, the amount required to inhibit precursor incorporation into DNA was less than that to inhibit precursor incorporation into RNA or protein (i.e. DNA synthesis is inhibited most potently).

For assay [2], the system named is DNA synthesis in HL-60 cells. Put plainly: Inhibition of [3H-methyl]dThd incorporation into DNA of HL-60 cells. As to conditions: for inhibition at 30 µg/mL: Homo sapiens, HL-60, at 0.03 mg/mL, read-out: % Inhibition of Precursor Incorporation, DNA; for inhibition of DNA synthesis, in words: HL-60, 0.03 mg/ml; for % Inhibition of Precursor Incorporation, DNA: at 0.03 mg/mL. As for the experimental part: as §1, with “control.” for “control. The control values for incorporation into DNA, RNA and protein were 8,500, 5,600 and 1,700 cpm/10^6 cells, respectively. The incubation conditions and the procedures for isolating DNA, RNA and protein fractions have been previously described (Chou, T. -C., et al., Cancer Res., 43:3074-3079 (1983)) .”
Human promyelocytic cells (HL-60) were incubated with [^3 H-methyl]dTHDin the presence and absence of a plant alkaloid.

The next assay relates to HL-60 cells. Put plainly: HL-60 cell growth inhibition, 72 h. Conditions: HL-60, 72 h; for IC50: read-out: Cell Growth Inhibition, IC50. As for the experimental part:
For growth inhibition studies, HL-60 cells (1.5×10^5 /ml) were grown in RPMI 1640 media (GIBCO, Grand Island, N.Y.) at 37° C. in humidified 5% CO2 for 72 h. Viable cells were determined using trypan blue exclusion and counted in a hemocytometer. The fractional inhibition for each compound concentration (0.0025-0.05 mg/ml in 0.1% dimethylsulfoxide) was analyzed with the median-effect plot using a computer program (Chou, T. -C and P. Talalay, Adv. Enzyme Regul., 22:27-55 (1984); Chou, J. and T. -C. thou, Dose-Effect analysis with microcomputers: Quantitation of ED50, LD50, synergism, antagonism, low-dose risk, receptor ligand binding and enzyme kinetics. A computer software disk for Apple II series or IBM-PC and manual. Elsevier Science Publishers, Elsevier-BioSoft, Cambridge, United Kingdom (1986)). The median-effect concentration (IC50) was determined automatically for three to five dose-effect levels. Cell growth in the absence of plant compound and in the presence of dimethylsulfoxide was used as a control. Dimethylsulfoxide alone inhibited cell growth 3.9%±1.5% during the 72 h incubation period. Those data with negative values represent activations.

Assay [3] has as its system protein synthesis in HL-60 cells. Put plainly: Inhibition of [2,3,4,5-3H]L-Leu incorporation into protein of HL-60 cells. As to conditions: Homo sapiens. As for the experimental part:
as §1, §2

Where [4] appears, read: at 0.03 mg/mL, read-out: % Inhibition of Precursor Incorporation, RNA.
Where [5] appears, read: HL-60, at 0.03 mg/mL, read-out: % Inhibition of Precursor Incorporation, Protein.
Setting [6] is: read-out: % Inhibition of Precursor Incorporation, RNA, at 0.03 mg/mL.
Where [7] appears, read: HL-60, read-out: % Inhibition of Precursor Incorporation, Protein, at 0.03 mg/mL.

Molecules are shown by their SMILES. Values joined by “and” are separate entries in the source; they are usually repeats but may differ in a detail not shown here. Identical values can stand only once. Like-named read-outs stand apart in the source and are kept apart here.

By IC50 is commonly meant the concentration at which inhibition is half-maximal. On to `COc1cc(O)c2c(=O)c3ccc(OC)c(OC)c3n(C)c2c1`, for which the inhibition at 30 µg/mL came out at 95% in assay [1] (setting [4]), 34.8% in assay [2] and 28.3% in assay [3] (setting [5]). The IC50 with HL-60 cells (Homo sapiens) was > 40 µg/mL and > 127 µM.
With `O=c1c2ccccc2[nH]c2cc(O)cc(O)c12` [Compound 4, 1,3-Dihydroxy-acridone], the inhibition at 30 µg/mL worked out at 50.6% in assay [1] (setting [4]), 76.7% in assay [2] and 62.8% in assay [3] (setting [5]). Further, the “inhibition of DNA synthesis, in words” value in assay [2] is “no significant activity”. Moreover, the concentration for half-maximal inhibition (IC50) with HL-60 cells (Homo sapiens) was 20.6 µg/mL and 90.7 µM.
Turning to `CC(=O)Oc1cc(OC(C)=O)c2c(=O)c3ccccc3[nH]c2c1` [Compound 5, 1,3-O,O-Diacetyl-acridone], the inhibition at 30 µg/mL in assay [1] (setting [4]) was 24.9%; in assay [2] it was 39.7%; in assay [3] (setting [5]), 26.9%. In addition, the “inhibition of DNA synthesis, in words” value in assay [2] was “no significant activity”. Also, in the assay on HL-60 cells (Homo sapiens), the IC50 was > 40 µg/mL and > 129 µM.
As to `CC(=O)Oc1cc(OC(C)=O)c2c(=O)c3ccccc3n(C)c2c1` [Compound 6], the figures for the inhibition at 30 µg/mL in assay [1] (setting [4]), in assay [2] and in assay [3] (setting [5]) were 2.7%, 23% and -12.8%, respectively. Besides, in the assay with HL-60 cells (Homo sapiens), the IC50 is > 40 µg/mL and > 123 µM.
For `COc1cc(O)c2c(=O)c3ccccc3n(C)c2c1` [Compound 7, 1-Hydroxy-3-methoxy N-methyl acridone], the inhibition at 30 µg/mL in assay [1] (setting [4]) is 39.5%; in assay [2] it was 48.4%; in assay [3] (setting [5]), 25.2%. The 50% inhibitory concentration (IC50) in the assay on HL-60 cells (Homo sapiens) is > 40 µg/mL and > 157 µM.
With `COc1cc(O)cc2c1c(=O)c1ccccc1n2C` [Compound 8, 1-Methoxy-3-Hydroxy N-methyl acridone], the inhibition at 30 µg/mL is 51.2% in assay [1] (setting [4]), 53.3% in assay [2] and 25.7% in assay [3] (setting [5]). Besides, the IC50 in the assay on HL-60 cells (Homo sapiens) was > 40 µg/mL and > 157 µM.
Consider `COc1cc(OC(C)=O)cc2c1c(=O)c1ccccc1n2C` [Compound 9, 3-O-Acetyl-1-methoxy-R-methyl acridone], for which the inhibition at 30 µg/mL is 61.6% in assay [1] (setting [4]), 71.1% in assay [2] and 30% in assay [3] (setting [5]). Moreover, in the assay with HL-60 cells (Homo sapiens), the half-maximal inhibitory concentration (IC50) was 30.5 µg/mL and 103 µM.
In the case of `COc1cc(OC)c2c(=O)c3ccccc3n(C)c2c1` [Compound 10, 1,3-Dimethoxy-N-methyl acridone], the inhibition at 30 µg/mL is 65.8% in assay [1] (setting [4]), greater than 90% in assay [2] and 64.4% in assay [3] (setting [5]). Further, the “inhibition of DNA synthesis, in words” value in assay [2] is given as “excellent inhibitory effect”. In the assay on HL-60 cells (Homo sapiens), the IC50 was 9.2 µg/mL and 34.2 µM.
Consider `CC(C)=CCc1c(O)cc(O)c2c(=O)c3ccccc3n(C)c12` [Compound 11, Glycocitrine-II], for which the inhibition at 30 µg/mL in assay [1] (setting [4]) came to 97.1%; in assay [2] it was 99.5%; in assay [3] (setting [5]) it was 95.3%. The “inhibition of DNA synthesis, in words” value in assay [2] was “potent inhibitor”. Besides, in the assay with HL-60 cells (Homo sapiens), the concentration for half-maximal inhibition (IC50) was 8.2 µg/mL and 26.5 µM.
On to `COc1cc(O)c2c(=O)c3ccccc3n(C)c2c1CC=C(C)C` [Compound 12, 3-O-methyl-glycocitrine-II], for which the figures for the inhibition at 30 µg/mL in assay [1] (setting [4]), in assay [2] and in assay [3] (setting [5]) were 53.8%, 61.8% and 50.3%, respectively. Also, the “inhibition of DNA synthesis, in words” value in assay [2] is “only moderate inhibitory activity”. Moreover, the IC50 with HL-60 cells (Homo sapiens) was > 40 µg/mL and > 124 µM.
As for `COc1cc(O)c2c(=O)c3cccc(O)c3n(C)c2c1CC=C(C)C` [Compound 13, Glycocitrine-I], the inhibition at 30 µg/mL in assay [1] (setting [4]) is 43.9%; in assay [2], 97.5%; in assay [3] (setting [5]) it was 41.1%. The “cell growth inhibition, in words” value with HL-60 cells is on record as “significant activity against leukemic cells in vitro”. In the assay with HL-60 cells (Homo sapiens), the IC50 was 1.4 µg/mL and 4.1 µM.
With `COc1cc(OC(C)=O)c2c(=O)c3cccc(OC(C)=O)c3n(C)c2c1CC=C(C)C` [Compound 14, OO-Diacetyl-glycocitrine-I], the values for the inhibition at 30 µg/mL in assay [1] (setting [4]), in assay [2] and in assay [3] (setting [5]) were 63.8%, 94.7% and 89.8%, respectively. The “cell growth inhibition, in words” value in the assay on HL-60 cells is given as “significant activity against leukemic cells in vitro”. Further, the 50% inhibitory concentration (IC50) in the assay with HL-60 cells (Homo sapiens) was 5.6 µg/mL and 13.2 µM.
As for `COc1c(O)cc(O)c2c(=O)c3cccc(O)c3n(C)c12` [Compound 15, Citrusinine-II], the inhibition at 30 µg/mL in assay [1] (setting [6]) turned out to be 91.7%; in assay [2] it was 88.5%; in assay [3] (setting [7]) it was 54.3%. In addition, the IC50 in the assay on HL-60 cells (Homo sapiens) is 17 µg/mL and 59.2 µM.
As to `COc1cc(O)c2c(=O)c3cccc(O)c3n(C)c2c1OC` [Compound 16, Citrusinine-I], the values for the inhibition at 30 µg/mL in assay [1] (setting [6]), in assay [2] and in assay [3] (setting [7]) were 96.5%, 97% and 87%, respectively. Besides, the “cell growth inhibition, in words” value in the assay with HL-60 cells is on record as “significant activity against leukemic cells in vitro”. In the assay on HL-60 cells (Homo sapiens), the IC50 is 2.6 µg/mL and 8.6 µM.
Take `COc1cc(OC)c2c(=O)c3cccc(OC)c3n(C)c2c1OC` [Compound 18, 1,3,4,5-Tetra-methoxy-N-methyl acridone]: the inhibition at 30 µg/mL worked out at 57% in assay [1] (setting [4]), 91.5% in assay [2] and 71.8% in assay [3] (setting [5]). Further, in the assay with HL-60 cells (Homo sapiens), the IC50 is 13.3 µg/mL and 40.4 µM.
As to `COc1ccc2c(=O)c3c(O)cc(O)cc3n(C)c2c1OC` [Compound 19, Grandisine-II], the values for the inhibition at 30 µg/mL in assay [1] (setting [4]), in assay [2] and in assay [3] (setting [5]) were 96%, 76.5% and 27.3%, respectively. The IC50 in the assay with HL-60 cells (Homo sapiens) is > 40 µg/mL and > 133 µM.
`COc1ccc2c(=O)c3c(O)cc(OC(C)=O)cc3n(C)c2c1OC` [Compound 20, O-Acetyl-grandisine-II]: the values for the inhibition at 30 µg/mL in assay [1] (setting [4]), in assay [2] and in assay [3] (setting [5]) were 77%, 24.4% and -5.6%, respectively. Besides, the 50% inhibitory concentration (IC50) in the assay with HL-60 cells (Homo sapiens) is 38.7 µg/mL and 113 µM.
In the case of `COc1cc(O)c2c(=O)c3ccc(OC)c(O)c3n(C)c2c1` [Compound 21, Grandisine-I], the values for the inhibition at 30 µg/mL in assay [1] (setting [4]), in assay [2] and in assay [3] (setting [5]) were 69.5%, 71.7% and 22.8%, respectively. In addition, in the assay on HL-60 cells (Homo sapiens), the half-maximal inhibitory concentration (IC50) is > 40 µg/mL and > 133 µM.
With `COc1cc(O)c2c(=O)c3ccc(O)c(OC)c3n(C)c2c1` [Compound 22, Citpressine-I], the “% Inhibition of Precursor Incorporation, DNA” value in assay [2] stood at 65.0%. Besides, in the assay on HL-60 cells, the “Cell Growth Inhibition, IC50” value is greater than 40 µg/mL and the IC50 is greater than 133 µM.
For `COc1cc(OC)c2c(=O)c3ccc(OC)c(OC)c3n(C)c2c1` [Compound 24, 1-O-Methyl-citpressine-II], the inhibition at 30 µg/mL in assay [1] (setting [4]) turned out to be 67.3%; in assay [2] it was 93.1%; in assay [3] (setting [5]) it was 75.6%. For the same compound, in assay [2], the “% Inhibition of Precursor Incorporation, DNA” value turned out to be 93%. Moreover, the 50% inhibitory concentration (IC50) in the assay with HL-60 cells (Homo sapiens) is 22 µg/mL and 66.8 µM.
Turning to `COc1c(O)ccc2c(=O)c3c(O)c(CC=C(C)C)c(O)cc3n(C)c12` [Compound 25, Buntanine], the inhibition at 30 µg/mL was 29.8% in assay [1] (setting [4]), 96.6% in assay [2] and 40.1% in assay [3] (setting [5]). For the same compound, in the assay on HL-60 cells (Homo sapiens), the IC50 was 3.6 µg/mL and 10.1 µM.
